# Data taken from patent US20210123061A1, “METHODS AND COMPOSITIONS FOR TREATING INFLAMMATORY DISEASE OR DISORDER” (THE BRIGHAM AND WOMEN'S HOSPITAL, INC., priority 2018, published 2021).
# How the values were obtained:
# [1] = system: STAT1 phosphorylation (Ser727, Tyr701); experiment: Immunoblot of STAT1 phosphorylation in IFN-γ-stimulated PBMC-derived macrophages; type: cell-based, human; settings: pre-treatment two hours, 60 minutes of IFN-γ stimulation, vs DMSO
# Protocol: FIGS. 3A-3F show RSK1 is activated through JAK signaling and its inhibition suppresses STAT1 phosphorylation at Ser727 in human primary macrophages in response to IFN-γ. (FIG. 3A) PBMC-derived macrophages were pre-treated with DMSO or 10 μM a pan-JAK inhibitor, pyridone-6, for two hours and then stimulated with IFN-γ for indicated time under serum starvation. Cell lysates were subjected to immunoprecipitation with normal IgG or anti-RSK1 followed by immunoblot analysis using the indicated antibodies. WCL, whole cell lysate. N=3 donors. (FIG. 3B) Immunoblots of cell lysates from macrophages that were transfected with control siRNA or RSK1 siRNA followed by stimulation with IFN-γ for indicated time under serum starvation. N=2 donors. (FIG. 3C) Immunoblots of cell lysates from macrophages that were pre-treated with DMSO or BI-D1870 for two hours and subsequently left unstimulated or stimulated with IFN-γ for 1 hour under serum starvation. (FIG. 3D) Densitometric based quantification (ImageJ Software) of STAT1-pSer727 in panel (FIG. 3C) plus three additional donors. The phosphorylation levels in cells pretreated with DMSO and stimulated were defined as 1.0. Data are means±SE. N=6 donors. **P<0.01 indicate significance for phosphorylation levels compared to control (treatment with DMSO and IFN-γ) by Dunnett's comparison test. (FIG. 3E) Macrophages were treated with DMSO or BI-d1870 for two hours followed by IFN-γ stimulation under serum starvation. Cell lysates were subjected to immunoprecipitation with normal IgG or anti-STAT1-pSer727 followed by SYPRO ruby stain or immunoblot analysis with the indicated antibodies. Immunoprecipitants in the gel (red square) were in-gel digested for parallel reaction monitoring (PRM) mass spectrometry. (FIG. 3F) Quantification of PRM ions (MS/MS ions) of the indicated STAT1 peptide harboring a phosphorylation at Ser727 (and oxidized methionine, m), generated from the digest of panel […].
# Cell culture of human PBMC-derived primary macrophages. […]
# [2] = system: activated macrophages (CD45+ CD11b+ F4/80+ CD86+ cells); experiment: Mouse model of thioglycollate-elicited peritonitis, flow cytometry of peritoneal cells; type: in vivo, mice; settings: 30 mg/kg intraperitoneally, twice; 24 hours after thioglycollate
# Protocol: FIGS. 5A-5D show RSK activity plays a key role for pro-inflammatory activation of macrophages in peritonitis model. (FIG. 5A) Model overview—mice were injected intraperitoneally with vehicle or 30 mg/kg BI-D1870. Twenty-four hours after the injection, 4% thioglycollate as well as vehicle or 30 mg/kg BI-D1870 were injected intraperitoneally in the mice. Forty-eight hours after the first injection, peritoneal cells were harvested. (FIG. 5B) Representative results of flow cytometry. Peritoneal cells were incubated with APC-Cy7-anti-CD45, FITC-anti-F4/80, APC-anti-CD11b, and PE-Cy7-anti-CD86 followed by flow-cytometry analysis. (FIG. 5C) Ratio of CD86-positive cells in peritoneal macrophages. Data are means±SE. N=10 mice. *P<0.05 indicates significance compared to control (vehicle) by unpaired Student's test. (FIG. 5D) Cell numbers of peritoneal CD86-positive macrophages. Data are means±SE. N=10 mice. *P<0.05 indicates significance by unpaired Student's test.
# Mouse peritonitis model. C57BL/6J wild type mice (12 weeks old, male) were purchased from Jackson Laboratory. We injected intraperitoneally with vehicle (30% PEG400, 0.5% Tween80, 5% Propylene glycol) or 30 mg/kg BI-D1870 (Selleck Chemicals). […]
# Flow cytometry. […] After washing cells with EasySep Buffer, stained cells were analyzed by BD FACSAria II (BD Bioscience) and FlowJo software (FlowJo LLC).
structure (smiles),measurement,setting,value
CC(C)CCN1c2nc(Nc3cc(F)c(O)c(F)c3)ncc2N(C)C(=O)C1C (stereo not shown) [BI-D1870],phospho-STAT1-Ser727 signal,[1],attenuated signal
same,phospho-STAT-Tyr701 signal,[1],no change
same,accumulation of activated macrophages in peritoneal cavity,[2],suppressed
same,ratio of activated macrophages to total macrophages,[2],suppressed
